According to PMC4102417 (PLoS Neglected Tropical Diseases, 2014):
Structures can show the parent of a compound that is named as a salt. Where two headings read alike, the source gives them in different places.

Tests used:
3T3 fibroblast cells = assay: cells; type: cell-based, murine; settings: for activity at 10 µM: Mus musculus, NIH3T3, 72 h, read-out: Mammalian (3T3) cell % growth at 10 uM
[1] = test system: T. cruzi (Tulahuen strain); assay: microbe, parasite or virus in culture; type: cell-based, Trypanosoma cruzi; settings: for activity at 10 µM: 120 h, read-out: T. cruzi % growth @ 10 uM (Amastigotes); for EC50: read-out: T. cruzi EC50
Summary of the method: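 Tulahuen parasites expressing beta-galactosidase were added (1×10^4 trypomastigotes/well) to 3T3 fibroblasts plated 24 h earlier, 4 h before compound (10 µM final).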

[2] = Trypanosoma cruzi, TULAHUEN, Fibroblast, Table S2
[3] = Trypanosoma cruzi, TULAHUEN, Fibroblast, Table S2, amastigotes
[4] = Trypanosoma cruzi, TULAHUEN, Fibroblast

SMILES	activity at 10 µM (3T3 fibroblast cells; Table S2)	activity at 10 µM [1, 2]	further results
CC1(C)C=CC(=O)C2(C)C1CC(=O)C1(C)C2CCC2(C)C(c3ccoc3)OC(=O)C3OC321 (centres unmarked) [DEACETOXY-7-OXISOGEDUNIN, 7-(furan-3-yl)-1,8,12,16,16-pentamethyl-3,6-dioxapentacyclo[9.8.0.0^{2,4}.0^{2,8}.0^{12,17}]nonadec-14-ene-5,13,19-trione]	100%	3.9%	
COC(=O)CCC(C)C1CCC2C3C(O)CC4CC(O)CCC4(C)C3CC(O)C12C (centres unmarked) [CHOLIC ACID, METHYL ESTER, methyl 4-{5,9,16-trihydroxy-2,15-dimethyltetracyclo[8.7.0.0^{2,7}.0^{11,15}]heptadecan-14-yl}pentanoate]	81%	22.6%	
CC(C)CCC[C@@H](C)[C@H]1CC[C@H]2[C@@H]3C(=O)C=C4C[C@@H](O)CC[C@]4(C)[C@H]3CC[C@]12C [7-OXOCHOLESTEROL, (1S,2R,5S,10S,11S,14R,15R)-5-hydroxy-2,15-dimethyl-14-[(2R)-6-methylheptan-2-yl]tetracyclo[8.7.0.0^{2,7}.0^{11,15}]heptadec-7-en-9-one]	68.5%	23.4%	
CCN(CC)C(=S)SSC(=S)N(CC)CC [N,N-diethyl[(diethylcarbamothioyl)disulfanyl]carbothioamide]			activity at 10 µM (3T3 fibroblast cells; Table S1): 0.1%; activity at 10 µM ([1]; Trypanosoma cruzi, TULAHUEN, Fibroblast, Table S1): 0.3%
COc1ccc(C(=O)c2ccc(O)cc2)c(O)c1O [2,3,4'-TRIHYDROXY-4-METHOXYBENZOPHENONE]	86.8%	3.6%	
Cc1cccc2c3c(ccc12)C1=C(C(=O)C3=O)C(C)CO1 (centres unmarked) [DIHYDROTANSHINONE I, 6,14-dimethyl-12-oxatetracyclo[8.7.0.0^{2,7}.0^{11,15}]heptadeca-1(10),2(7),3,5,8,11(15)-hexaene-16,17-dione]	77.1%	4.8%	
COC(=O)c1cc(O)c(=O)c2c(O)c(O)ccc2c1 [methyl 3,4,6-trihydroxy-5-oxo-5H-benzo[7]annulene-8-carboxylate]	92.2%	18.2%	
CCCCCCCCCCCCCC(=O)O[C@@H]1[C@@H](C)[C@@]2(O)[C@@H](C=C(CO)C[C@]3(O)C(=O)C(C)=C[C@@H]23)[C@@H]2C(C)(C)[C@]12OC(C)=O [PHORBOL MYRISTATE ACETATE, (1S,2S,6R,10S,11R,13S,14R,15R)-13-(acetyloxy)-1,6-dihydroxy-8-(hydroxymethyl)-4,12,12,15-tetramethyl-5-oxotetracyclo[8.5.0.0^{2,6}.0^{11,13}]pentadeca-3,8-dien-14-yl tetradecanoate]	89.2%	5.6%	
COc1ccc(Cc2nccc3cc(OC)c(OC)cc23)cc1OC [PAPAVERINE, 1-[(3,4-dimethoxyphenyl)methyl]-6,7-dimethoxyisoquinoline hydrochloride]	93.1%	8.4%	
O=C(/C=C(/O)c1ccccc1)c1ccccc1O [2',beta-DIHYDROXYCHALCONE, (2E)-3-hydroxy-1-(2-hydroxyphenyl)-3-phenylprop-2-en-1-one]	100%	10%	
O=c1cc(-c2cc(O)c(O)c(O)c2)oc2cc(O)cc(O)c12 [HIERACIN, 5,7-dihydroxy-2-(3,4,5-trihydroxyphenyl)-4H-chromen-4-one]	100%	6.5%	
CC1COC2=C1C(=O)C(=O)c1c2ccc2c1CCCC2(C)C (centres unmarked) [CRYPTOTANSHINONE, 6,6,14-trimethyl-12-oxatetracyclo[8.7.0.0^{2,7}.0^{11,15}]heptadeca-1(10),2(7),8,11(15)-tetraene-16,17-dione]	87%	4.5%	
Oc1cc2c(cc1O)C1c3ccc(O)c(O)c3OCC1(O)C2 (centres unmarked) [HAEMATOXYLIN, 8-oxatetracyclo[8.7.0.0^{2,7}.0^{12,17}]heptadeca-2,4,6,12,14,16-hexaene-5,6,10,14,15-pentol]	100%	3.7%	
CC(=O)O[C@@H]1CC2C(C)(C)C(=O)CC[C@]2(C)C2CC[C@]3(C)C(=CC(=O)O[C@H]3c3ccoc3)[C@@]21C (some centres unmarked) [DIHYDRODEOXYGEDUNIN]			Mammalian (3T3) cell % growth at 10 uM (3T3 fibroblast cells; Table S2): 83.8%; T. cruzi % growth @ 10 uM (Amastigotes) ([1]; Table S2): 23.4%
O=C1C=C2C=CC3CC2(O1)C1CCCCN31 (centres unmarked) [SECURININE, 14-oxa-7-azatetracyclo[6.6.1.0^{1,11}.0^{2,7}]pentadeca-9,11-dien-13-one]	75%	1.4%	
COC(=O)C1=C(C)NC(C)=C(C(=O)OCCN(C)Cc2ccccc2)C1c1cccc([N+](=O)[O-])c1 (centres unmarked) [NICARDIPINE, 3-{2-[benzyl(methyl)amino]ethyl} 5-methyl 2,6-dimethyl-4-(3-nitrophenyl)-1,4-dihydropyridine-3,5-dicarboxylate]	99.8%	2%	EC50 [1, 3]: 5.85 µM; EC50 [1, 4]: 5.9 µM
c1ccc(-c2ccc(C(c3ccccc3)n3ccnc3)cc2)cc1 (centres unmarked) [BIFONAZOLE, 1-[phenyl(4-phenylphenyl)methyl]-1H-imidazole]	93.6%	0.7%	
CC(=O)OC1CCC2(C)C(CC(OC(C)=O)C3(C)C2CCC2(C)C(c4ccoc4)OC(=O)C4OC423)C1(C)C (stereo not drawn) [3beta-ACETOXYDEOXODIHYDROGEDUNIN, 15-(acetyloxy)-7-(furan-3-yl)-1,8,12,16,16-pentamethyl-5-oxo-3,6-dioxapentacyclo[9.8.0.0^{2,4}.0^{2,8}.0^{12,17}]nonadecan-19-yl acetate]	96.7%	7%	
CCC(=O)O[C@H]1CC[C@H]2[C@@H]3CCc4cc(O)ccc4[C@H]3CC[C@]12C [ESTRADIOL PROPIONATE, (1S,10R,11S,14S,15S)-5-hydroxy-15-methyltetracyclo[8.7.0.0^{2,7}.0^{11,15}]heptadeca-2,4,6-trien-14-yl propanoate]	100%	20.3%	
COc1ccc2c(c1)[nH]c1c(C)nccc12 [HARMINE, 7-methoxy-1-methyl-9H-pyrido[3,4-b]indole]	87.2%	7.5%	
CCCCC1C(=O)N(c2ccccc2)N(c2ccc(O)cc2)C1=O (centres unmarked) [OXYPHENBUTAZONE, 4-butyl-1-(4-hydroxyphenyl)-2-phenylpyrazolidine-3,5-dione]	72.8%	3.7%	EC50 [1, 4]: 12 µM
COC(=O)C1C2CC3c4[nH]c5cc(OC)ccc5c4CCN3CC2CC(OC(=O)c2cc(OC)c(OC)c(OC)c2)C1OC (centres unmarked) [RESERPINE, methyl 6,18-dimethoxy-17-[(3,4,5-trimethoxyphenyl)carbonyloxy]-3,13-diazapentacyclo[11.8.0.0^{2,10}.0^{4,9}.0^{15,20}]henicosa-2(10),4(9),5,7-tetraene-19-carboxylate]	100%	4%	EC50 [1, 3]: 5.97 µM; EC50 [1, 4]: < 10 µM
COc1cc(O)c2c(c1)C(=O)c1cc(C)cc(O)c1C2=O [PHYSCION, 1,8-dihydroxy-3-methoxy-6-methyl-9,10-dihydroanthracene-9,10-dione]	96.8%	9.2%	
NC(=O)c1cc([N+](=O)[O-])cc([N+](=O)[O-])c1 [NITROMIDE, 3,5-dinitrobenzamide]			Mammalian (3T3) cell % growth at 10 uM (3T3 fibroblast cells; Table S2): 97.2%; T. cruzi % growth @ 10 uM (Amastigotes) ([1]; Table S2): 1.9%; EC50 ([1]; Table S2, amastigotes): 4.8 µM
C=CCN(C)CCCCCCOc1ccc(C(=O)c2ccc(Br)cc2)c(F)c1 [Ro 48-8071]			CC50 (3T3 fibroblast cells; 3T3 fibroblasts, 72 hours, separate assays separated by semicolons, read-out: Mammalian cell CC50): 7.4 µM; EC50 ([1]; intracellular amastigotes, 5 days, separate assays separated by semicolons): 0.41 µM
